Measured values published in PubChem BioAssay (NCI).
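Dose response: 5 concentrations. Exposure: 48 h. Format: 96-well plates. Endpoint: linear interpolation; highest concentration if not reached. Definition used: TGI = concentration required for complete inhibition of growth.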

Key:
Experiment in all cases: NCI-60 cell line screen, 48 h
TK-10 renal = system: TK-10 renal
HL-60(TB) leukemia = system: HL-60(TB) leukemia
PC-3 prostate = system: PC-3 prostate
COLO 205 colon = system: COLO 205 colon
SK-MEL-28 melanoma = system: SK-MEL-28 melanoma
SK-OV-3 ovarian = system: SK-OV-3 ovarian
OVCAR-4 ovarian = system: OVCAR-4 ovarian
786-0 renal = system: 786-0 renal
SW-620 colon = system: SW-620 colon
HT29 colon = system: HT29 colon
KM12 colon = system: KM12 colon
IGROV1 ovarian = system: IGROV1 ovarian
SNB-75 CNS = system: SNB-75 CNS
UACC-62 melanoma = system: UACC-62 melanoma
SF-295 CNS = system: SF-295 CNS
MOLT-4 leukemia = system: MOLT-4 leukemia
NCI-H226 lung = system: NCI-H226 lung
HCT-15 colon = system: HCT-15 colon
RPMI-8226 leukemia = system: RPMI-8226 leukemia

| SMILES | TGI (TK-10 renal) | TGI (HL-60(TB) leukemia) | TGI (PC-3 prostate) | TGI (COLO 205 colon) | TGI (SK-MEL-28 melanoma) | TGI (SK-OV-3 ovarian) | TGI (OVCAR-4 ovarian) | TGI (786-0 renal) | TGI (SW-620 colon) | TGI (HT29 colon) | TGI (KM12 colon) | TGI (IGROV1 ovarian) | TGI (SNB-75 CNS) | TGI (UACC-62 melanoma) | TGI (SF-295 CNS) | TGI (MOLT-4 leukemia) | TGI (NCI-H226 lung) | TGI (HCT-15 colon) | TGI (RPMI-8226 leukemia) |
| --- | --- | --- | --- | --- | --- | --- | --- | --- | --- | --- | --- | --- | --- | --- | --- | --- | --- | --- | --- |
| CCCCCCCC(CC(=O)NC(CO)C(=O)NC(CO)CC(C)C)OC(=O)CC(CCCCCCC)OC(=O)CC(CCCCCCC)OC1OC(C)C(O)C(OC2OC(C)C(OC(C)=O)C(O)C2O)C1O (configuration not stated) | 29.8 µM | 9.2 µM | 16.2 µM | 9.14 µM | 19.4 µM | 29.8 µM | 19.4 µM | 18.5 µM | 23.3 µM | 13 µM | 14.3 µM | 22.5 µM | 16.3 µM | 19 µM | 24.3 µM | 12.2 µM | 35.5 µM |  |  |
| O=C1NC(=S)N/C1=C\c1cccs1 | > 100 µM |  | > 100 µM | > 100 µM | > 100 µM | > 100 µM | > 100 µM | > 100 µM | > 100 µM | > 100 µM | > 100 µM | > 100 µM | > 100 µM | > 100 µM | > 100 µM | > 100 µM | > 100 µM | > 100 µM | > 100 µM |
| CCCCCCNCCc1cnc[nH]1 |  |  | > 100 µM | > 100 µM | > 100 µM | > 100 µM | > 100 µM | > 100 µM | > 100 µM | > 100 µM | > 100 µM | > 100 µM | > 100 µM | > 100 µM | > 100 µM | > 100 µM | > 100 µM | > 100 µM | > 100 µM |
| O=c1[nH]c2cc(C(F)(F)F)ccc2nc1C(F)(F)F | > 100 µM |  | 97.2 µM | > 100 µM | > 100 µM | > 100 µM | > 100 µM | > 100 µM | > 100 µM | > 100 µM | 71.2 µM | > 100 µM | 93.6 µM | > 100 µM | > 100 µM | > 100 µM | > 100 µM | > 100 µM | > 100 µM |
| O=C(/C=C/c1ccc(O)c(O)c1)OCC(OC(=O)/C=C/c1ccc(O)c(O)c1)C(=O)O (configuration not stated) | > 100 µM |  | > 100 µM | > 100 µM | > 100 µM | > 100 µM | > 100 µM | > 100 µM | > 100 µM | > 100 µM | > 100 µM | > 100 µM | > 100 µM | > 100 µM | > 100 µM | > 100 µM | > 100 µM | > 100 µM | > 100 µM |
| CNC1(c2cc3ccccc3s2)CCCCC1 | > 100 µM |  | 55.5 µM | 41.9 µM |  | > 100 µM | > 100 µM | 39.7 µM | > 100 µM | 67.8 µM | 43.1 µM | 84.6 µM | 99.3 µM | 49 µM | > 100 µM | > 100 µM | 91.3 µM | > 100 µM |  |
| O=C(NN1C(=O)C(Cl)C1c1ccc(Cl)cc1)c1c(Cl)c(Cl)c(Cl)c(Cl)c1-c1nc2ccccc2[nH]1 (configuration not stated) |  | 59.6 µM | > 100 µM | 36.2 µM | 78.7 µM | > 100 µM |  | 47.4 µM | > 100 µM | 75.8 µM | > 100 µM | 45.8 µM | 57 µM | 33.9 µM | > 100 µM | > 100 µM | 65.7 µM | 54.4 µM |  |
| CCOC(=O)c1ccc(N=C/C=C(\Nc2ccc(C(=O)OCC)cc2)C23CC4CC(CC(C4)C2)C3)cc1 | > 100 µM | > 100 µM | > 100 µM | > 100 µM | > 100 µM | > 100 µM | > 100 µM | > 100 µM | > 100 µM | > 100 µM | > 100 µM | > 100 µM | > 100 µM | > 100 µM | > 100 µM | > 100 µM | > 100 µM | > 100 µM |  |
| COC1(OC)N=C(N)C2(C#N)C(c3ccccc3)NC3=C(CCC3)C12C#N (configuration not stated) | > 100 µM | > 100 µM | > 100 µM | > 100 µM | > 100 µM | > 100 µM | > 100 µM | > 100 µM | > 100 µM | > 100 µM | > 100 µM | > 100 µM |  | > 100 µM | > 100 µM | > 100 µM | > 100 µM | > 100 µM | > 100 µM |
| CNc1ncccc1Nc1cc(=O)n2c3cccnc3n(C)c2c1 | > 100 µM |  | > 100 µM | > 100 µM | > 100 µM | > 100 µM | > 100 µM | > 100 µM | > 100 µM | > 100 µM | > 100 µM | > 100 µM | 78.1 µM | > 100 µM | > 100 µM | > 100 µM | > 100 µM | > 100 µM | > 100 µM |
| CC(C)NC(=O)OCc1c2c(n(C)c1COC(=O)NC(C)C)-c1cc(Cl)c(Cl)cc1CC2 | 84.5 µM |  | > 100 µM | 73.6 µM | > 100 µM | > 100 µM | > 100 µM | > 100 µM | > 100 µM | > 100 µM | 81.7 µM | 96 µM | 81.7 µM | > 100 µM | > 100 µM | 60.3 µM | > 100 µM | > 100 µM | 64.8 µM |
| CC(C)CCNC(=O)c1ccc(CNC(=O)/C=C/c2cccc(Oc3ccccc3)c2)cc1 | 96.9 µM |  | > 100 µM | > 100 µM | > 100 µM | 98.3 µM | > 100 µM | 69.3 µM | > 100 µM | > 100 µM | > 100 µM | > 100 µM | > 100 µM | 71.1 µM | > 100 µM | > 100 µM | > 100 µM | > 100 µM | > 100 µM |
| O=C(CSc1nnc(-c2ccccn2)s1)N/N=C/c1ccccc1 | > 100 µM |  | > 100 µM | > 100 µM | > 100 µM | > 100 µM | > 100 µM | > 100 µM | > 100 µM | > 100 µM | > 100 µM | > 100 µM | 17 µM | > 100 µM | > 100 µM | > 100 µM | > 100 µM | > 100 µM |  |
